Assay results: patent publication US20230107216A1, “PANTETHEINE DERIVATIVES AND USES THEREOF” (Comet Therapeutics, Inc., priority 2018, published 2023)
Like-named read-outs stand apart in the source and are kept apart here.

Tests used:
HepG2 cells [1] = experiment: MitoBiogenesis In-Cell ELISA (COX-I, SDH-A); type: cell-based; conditions: Homo sapiens, 168 h, 10 uM, 7 days, read-out: % increase in Mitochondrial Biogenesis
Text: We determined the effect of compounds of the present disclosure on the levels of two mitochondrial proteins using MitoBiogenesis™ In-Cell ELISA Kit (Abcam ab110216) according to manufacturer's instructions. The two proteins are each subunits of a different oxidative phosphorylation enzyme complex, one protein being subunit I of Complex IV (COX-1), which is mitochondrial (mt)DNA-encoded, and the other being the 70 kDa subunit of Complex II (SDH-A), which is nuclear (n)DNA-encoded. Complex IV includes several proteins which are encoded in the mitochondrion, while the proteins of Complex II are entirely encoded in the nucleus. HepG2 cells (ATCC, HB-8065) were cultured (5% CO2 at 37° C.) and plated in Poly-D-Lysine 384-Well plate (Corning, 356663) at a density of 40,000 cells/mL in 50 μL. Culture and assay media consisted of DMEM (Gibco, 11995-065) supplemented with 1% Penicillin-Streptomycin and 10% FBS (Hyclone, SV30087.03). Cells were allowed to settle for 30 min at room temperature and further incubated overnight (37° C. and 5% CO2) for adherence. Next day, 50-5 μM of the negative control Chloramphenicol (Selleck, S1677), test compounds (50-10 μM) and vehicle DMSO (0.2%) were added at the recommended volumes to the 384-well plate for 7 days without media change using a Tecan compound dispenser. All the solutions and wash buffers were prepared and dispensed according to manufacturer's volumes for a 384-well plate format. Effects of compounds on mtDNA-encoded protein expression (COX-I) and nuclear DNA-encoded mitochondrial protein expression (SDH-A) were expressed as relative signal (nm) to vehicle of a n=2 per conditions.

HepG2 cells [2] = experiment: Mitochondrial membrane potential (MITO-ID MP detection Kit); type: cell-based; conditions: Homo sapiens, 168 h, 7 days, read-out: % decrease in Mitochondrial Membrane Potential
Method in brief: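 Cells plated at 160000 cells/mL in DMEM with 10% FBS and 1% Pen-Strep, adhered overnight at 37° C., 5% CO2. Exposure to test compounds (50-10 μM) or 0.2% DMSO for 7 days without media change; membrane potential measured with MITO-ID MP detection kit per manufacturer.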

[3] = test system: Coronary artery smooth muscle cells (CASM3C system); experiment: BioMAP CASM3C system (IL-1β, TNFα, IFNγ); type: cell-based, human
[4] = test system: Bronchial epithelial cells (BE3C system); experiment: BioMAP BE3C system (IL-1β, TNFα, IFNγ); type: cell-based, human; conditions: Homo sapiens, Epithelial cell, 24 h; 10 uM; procedure of Example 831; read-out: % decrease in MMP-1
[5] = test system: Peripheral blood mononuclear cells co-cultured with B-cells (BT system); experiment: cells; conditions: Homo sapiens, 72 h, read-out: % decrease in sIL-17
[6] = test system: Bronchial epithelial cells co-cultured with dermal fibroblast (BF4T system); experiment: BioMAP BF4T system (TNFα and IL-4); type: cell-based, human; conditions: Homo sapiens, 24 h; 1 uM; procedure of Example 830; read-out: % increase in VCAM-1
HepG2 cells [7] = experiment: Glucose uptake (Glucose Uptake-Glo); type: cell-based; conditions: Homo sapiens, 50 uM, read-out: % increase in Glucose Uptake
[8] = test system: Keratinocytes co-cultured with dermal fibroblast (KF3CT system); experiment: BioMAP KF3CT system (IL-1β, TNFα, IFNγ, TGFβ); type: cell-based, human; conditions: 1 uM
Experimental: The BioMAP platform (BioMAP® Diversity PLUS® Panel from Eurofins) is an in vitro phenotypic profiling technology that screened the compounds of the present disclosure (hereafter indicated as test agents) in human primary cell-based systems modelling complex tissue and disease states. The BioMAP assays were performed using the Eurofin's BioMAP Technology Platform as (see references 1 to 13 in the example 824 section) to model different diseases on primary cell-based model systems. These systems consisted of either single primary cell types or co-culture cells. Adherent cell types were cultured or co-cultured in 96 or 384-well plates until confluence followed by the addition of compounds prepared in DMSO at a final concentration of ≤0.1%. In each cell-based system, primary cells from heathy donors (2-6 donors) were pooled and treated with compounds at 1 and 10 μM dose 1h prior to stimulation and remain in culture as indicated in Example 825, Example 826, Example 827, Example 828, Example 829, Example 830, Example 831, Example 832, Example 833, Example 834, Example 835, Example 836 and Example 837. For on the BioMAP® Diversity PLUS® Panel, please see the following references, which are incorporate herein.
Following the general procedure as described in Example 824, Keratinocytes were co-cultured with dermal fibroblast (KF3CT system) and treated with IL-1β, TNFα, IFNγ and TGFβ for 24h in the presence or absence of the compounds to model psoriasis, dermatitis and skin biology. Biomarkers read out were; MCP-1, ICAM-1, IP-10, IL-8, MIG, IL-1α, MMP-9, PAI-1, SRB, TIMP-2, uPA.

[9] = test system: Methylmalonic Acidemia (MMA) primary fibroblasts GM01673; experiment: Mitochondrial respiration, XFe96 Extracellular Flux Analyzer (OCR/ECAR), MMA fibroblasts GM01673; type: cell-based; conditions: Homo sapiens, Fibroblast, assay condition D (1 mM glucose, 10% FBS), 10 μM, read-out: Increase in Maximal Respiratory Capacity AUC
Experimental: The effect of the compounds of the present disclosure on mitochondrial respiration was measured with a XFe96 Extracellular Flux Analyzer (Seahorse Bioscience, Agilent Technologies) and Oxygen consumption Rate (OCR) and Extracellular acidification rate (ECAR) determined.
Cell culture and treatments. Primary adherent fibroblasts were cultured in minimum essential medium (MEM) (Gibco, 25030081) supplemented with 2 mM L-Glutamine (Gibco, 25030081), 15% fetal bovine serum (FBS) (Gibco, 26400044) and 1% penicillin/streptomycin (Gibco, 5140122) at 37° C. and 5% CO2. Cells were collected for either passaging or experiment at ˜70-80% confluence. Cells were obtained by trypsinization and seeded at 20000 cells/well in cell culture microplates (Seahorse Bioscience, 101085-004) and allowed to adhere for 16 hours in culture media.
By profiling different primary cells and/or optimizing their culture media or environmental components one can select cell lines and/or conditions that are appropriate for the biological or disease model. In the present example, 24 hours prior to OCR and ECAR profiling, media was changed to Dulbecco's Modified Eagle Medium (DMEM, Agilent Seahorse 103575-100) with the appropriate supplements for the different primary cells (10 mM glucose, 2 mM L-glutamine, 1 mM pyruvate, 10% FBS; 1 mM glucose, 2 mM L-glutamine, 1 mM pyruvate, 10% FBS; 10 mM glucose, 10% FBS; 5 mM glucose 10% FBS; 1 mM glucose 10% FBS). Cells used in this example were: Propionic Acidemia (PA) (GM00371, GM03590 Coriell Institute for Medical Research, Tsi 6337, Tsi 4626, Tsi 3618 Trans-Hit Bio), Methylmalonic Acidemia (MMA) (GM01673, Coriell Institute for Medical Research, Tsi 5224 Trans-Hit Bio), Branched chain ketoacid dehydrogenase kinase (BCKDK) (GM00612, GM00649 Coriell Institute for Medical Research), Subnormal activation of pyruvate dehydrogenase complex (PDH) (GM01503 Coriell Institute for Medical Research), Very long-chain acyl-CoA dehydrogenase (VLCAD) (GM17475), Leigh Syndrome (LS) (GM03672, GM13411 Coriell Institute for Medical Research), Pyruvate Carboxylase Deficiency (PC) (GM00444 Coriell Institute for Medical Research), Glutaric Acidemia-I (GA) (GM10653), Friedreich's Ataxia (FXN) (GM04078 Coriell Institute for Medical Research, Huntington's disease (HD) (GM21756 Coriell Institute for Medical Research), Ornithine Transcarbamylase Deficiency (OTC) (GM12756 Coriell Institute for Medical Research), Kearns-Sayre Syndrome (KSS) (GM06225 Coriell Institute for Medical Research).
One hour before the assay, the cells were washed with freshly prepared unbuffered serum free-Seahorse XF Assay medium (Seahorse Bioscience, North America, USA, 103575-100) with the same supplements as for the previous 24 hour incubation.
After baseline measurements of OCR, cells were challenged with compounds of the present disclosure at different concentrations (10 to 50 μM) or vehicle (DMSO, 0.1%) and a post-compound baseline was recorded. OCR was measured after sequentially adding to each well 1 μg/ml oligomycin (inhibitor of ATP synthase Sigma-Aldrich, 753531), then maximal OCR was determined with carbonyl cyanide 4-(trifluoromethoxy) phenylhydrazone (FCCP, Sigma-Aldrich, C2920), (uncoupler of oxidative phosphorylation) and 0.5 μM of rotenone (Sigma-Aldrich, R8875) plus antimycin A (Sigma-Aldrich, A8674) (inhibitors of mitochondrial complex I and III) for determination of rotenone-antimycin insensitive respiration together with Hoechst for nuclear staining in situ when normalized to cell counts. After the analysis and nuclear staining, the XFp microplate was transferred to the Cytation 5, and the nuclear images were captured, the individual nuclei were identified and counted by BioTek Gen5 software. Data were expressed as pmol of O2 per minute and normalized by nuclear staining and baselined to pre-compound addition.
Assay conditions were as stated below.
Assay specifics on assay conditions are indicated below when readouts were normalized to cell counts. […]

[10] = test system: Dermal fibroblasts (HDF3CGF system); experiment: BioMAP HDF3CGF system (IL-1β, TNFα, IFNγ, EGF, bFGF, PDGF-BB); type: cell-based, human; conditions: Homo sapiens, Fibroblast, 72 h; 1 uM; read-out: % increase in 72 Hour Proliferation
[11] = test system: Peripheral blood mononuclear cells co-cultured with venular endothelial cells (HUVEC) (LPS system); experiment: BioMAP LPS system; type: cell-based, human; conditions: 10 uM, procedure of Example 827
[12] = test system: Propionic Acidemia (PA) primary fibroblasts GM00371; experiment: Mitochondrial respiration, XFe96 Extracellular Flux Analyzer (OCR/ECAR), PA fibroblasts GM00371; type: cell-based; conditions: Homo sapiens, Fibroblast, assay condition C (10 mM glucose, 10% FBS), 50 μM, read-out: Increase in Maximal Respiratory Capacity AUC
[13] = test system: primary fibroblasts (healthy controls and PA, MMA, BCKDK, PDH, VLCAD, LS, PC, GA, VLCFA, KSS, FXN, HD); experiment: Measurement of ROS (H2DCFDA) in primary fibroblasts; type: cell-based, human; conditions: Homo sapiens, Fibroblast, BCKD GM00649, procedure Example 812, Assay Condition C
Method in brief: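 Patient and healthy-control primary fibroblasts switched to supplemented DMEM 24 h before assay, then treated with compound (10 μM) plus H2DCFDA (22 μM) for 2 h (PA, MMA lines) or 24 h (other lines). Kinetic fluorescence at 492/527 nm over 60 min; only live cells analysed.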

## COC(=O)CCC(=O)SCCNC(=O)CCNC(=O)[C@H](O)C(C)(C)COP(=O)(O)O [Compound 62, Methyl (R)-4-((2-(3-(2-hydroxy-3,3-dimethyl-4-(phosphonooxy)butanamido)propanamido)ethyl)thio)-4-oxobutanoate]
HepG2 cells [1]
  activation at 10 µM: > 5%
HepG2 cells [2]; 50 uM
  inhibition at 50 µM: > 50%

## CSCCNC(=O)CCNC(=O)[C@H](O)C(C)(C)CO [Compound 1250, (R)-2,4-dihydroxy-3,3-dimethyl-N-(3-((2-(methylthio)ethyl)amino)-3-oxopropyl)butanamide]
HepG2 cells [1]
  activation at 10 µM: > 5%
HepG2 cells [2]
  inhibition at 10 µM: > 50%

## CC(C)(CO)[C@@H](O)C(=O)NCCC(=O)NCCSC(CC(=O)O)C(=O)OCC[N+](C)(C)C (stereo partly drawn) [Compound 57, 3-(2-{3-[(R)-2,4-dihydroxy-3,3-dimethylbutyrylamino]propionylamino}ethylthio)-3-(2-trimethylazaniumethoxycarbonyl)propionic acid]
[3]; 1 uM
  % decrease in Tissue Factor: ≥10%
[3]; 1 uM, procedure of Example 832
  % decrease in Proliferation: ≥10%
[3]; 10 uM
  % decrease in CXCL9: ≥10%
  % decrease in HLA-DR: ≥10%
[3]; Homo sapiens, 24 h, 10 uM, read-out: % decrease in Thrombomodulin
  inhibition at 10 µM: ≥ 20%
[4]
  inhibition at 10 µM: ≥ 10%
[5]
  inhibition at 10 µM: ≥ 20%
[6]
  activation at 1 µM: ≥ 10%
HepG2 cells [7]
  activation at 50 µM: ≥ 20%
[8]
  % decrease in PAI-I: ≥10%
[8]; procedure of 834
  % decrease in MCP-1: ≥10%
[9]
  activation at 10 µM: ≥ 10%
[10]
  activation at 1 µM: ≥ 10%
[11]
  % increase in sPGE2: ≥10%
[11]; Homo sapiens, HUVEC, 24 h, read-out: % decrease in TissueFactor
  inhibition at 10 µM: ≥ 10%
[11]; Homo sapiens, HUVEC, 24 h, read-out: % increase in sTNFα
  activation at 10 µM: ≥ 20%
[12]
  activation at 50 µM: ≥ 10%

## COC(=O)C[C@H](N)C(=O)SCCNC(=O)CCNC(=O)[C@H](O)C(C)(C)CO [Compound 414]
HepG2 cells [1]
  activation at 10 µM: 10%
[13]; read-out: Decreased ROS by at least 10%
  inhibition at 10 µM: ≥ 10%
[13]; read-out: Decreased ROS by at least 30%
  inhibition at 10 µM: ≥ 30%
HepG2 cells [2]
  inhibition at 10 µM: > 20%
